Residue numbers refer to the chain shown, from its start. pKi: −log10 of the molar value. Where “and” joins values, the source holds several entries; their conditions need not be identical. Equal values may be shown once. Read-outs that look alike come from different tables or passages of the source. Blank lines part the entries; values can stand above or below the compound they belong to.
Assays:
[1] = biological target: T1, Human Type I 5'-Deiodinase (Homo sapiens, UniProt P49895); test: Kinetics of rT3 deiodination, enzyme transiently expressed in COS-7 cells; format: biochemical
T1 construct: expressed in transfected cells; host or cells: COS-7 cells (cell sonicate)
T1 sequence (P49895 1-249): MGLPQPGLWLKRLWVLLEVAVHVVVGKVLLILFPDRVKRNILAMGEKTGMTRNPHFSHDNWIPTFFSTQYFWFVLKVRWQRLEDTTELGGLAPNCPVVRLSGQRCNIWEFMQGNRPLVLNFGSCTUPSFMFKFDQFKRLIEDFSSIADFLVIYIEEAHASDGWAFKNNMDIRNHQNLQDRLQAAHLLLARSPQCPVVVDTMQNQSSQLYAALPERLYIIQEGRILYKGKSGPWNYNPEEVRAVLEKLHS
Procedure: Cell sonicate protein concentration was approximately 12 mg ml^-1 by Biorad determination using gamma globulin as a standard.
Incubations were for 30 minutes at 37° C. and ^125 I was quantitated as previously described (Berry, et al., Mol. Endocrinol. 4:743-748 (1990)).

[2] = biological target: T2, Type I iodothyronine 5' deiodinase, TGA (selenocysteine-126) (Rattus norvegicus, UniProt P24389); test: Sensitivity to gold thioglucose, wild type (TGA) G21 cDNA, JEG cell sonicates; format: biochemical; conditions: for Deiodinase Activity of JEG cell sonicates: 10 mM DTT, 300 nM 125I rT3, 30 min
T2 construct: the full length protein terminates at the UAG codon at nucleotide 778; expressed in transfected cells; host or cells: JEG-3 human choriocarcinoma cells, vector CDM-8 (homogenates, microsomal fractions or sonicates)
T2 sequence (P24389 1-257): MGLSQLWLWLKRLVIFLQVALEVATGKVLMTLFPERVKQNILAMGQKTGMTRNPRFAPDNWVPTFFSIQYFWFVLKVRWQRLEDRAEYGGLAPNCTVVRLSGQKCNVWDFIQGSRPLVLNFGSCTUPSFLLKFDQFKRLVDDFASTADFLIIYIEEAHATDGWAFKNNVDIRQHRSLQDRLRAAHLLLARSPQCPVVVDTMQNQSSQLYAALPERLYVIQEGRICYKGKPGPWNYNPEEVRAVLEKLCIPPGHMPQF
Text: (§1) Wild type (TGA) or cysteine mutant (TGT) G21 cDNA in CDM-8 was transfected into JEG-3 as described in Example III. […] 1β-D-Thioglucose (5 μm) had no effect on enzyme activity. 1.

rat 5' deiodinase = biological target: T3, rat 5' deiodinase (Rattus norvegicus, UniProt P24389); test: Affinity labelling with bromoacetyl T3, rat enzyme; format: binding
T3 construct: the full length protein terminates at the UAG codon at nucleotide 778; expressed in transfected cells, vector CDM-8; cell sonicate
T3 sequence (P24389 1-257): T2 sequence (P24389 1-257)
Procedure: (§2) The final product in 2 ml of acidified 20% ethanol was diluted with 3 volumes of water and purified by chromatography on a column (2.5×0.8cm) of Sephadex LH-20 (Pharmacia). […] Densitometric quantitation of the autoradiographs was performed by a Molecular Dynamics computing densitometer (Sunnyvale, Calif.).

human 5' deiodinase [3] = biological target: T4, human 5' deiodinase (Homo sapiens, UniProt P49895); test: Affinity labelling with bromoacetyl T3, human enzyme; format: binding; design: expressed in transfected cells; host or cells: COS-7 cells (cell sonicate)
T4 sequence (P49895 1-249): T1 sequence (P49895 1-249)
Procedure: as §2

T4 to T3 conversion = conditions: cited from earlier work
Type I 5' deiodinase = biological target: T5, Type I 5' deiodinase (Rattus norvegicus, UniProt P24389); test: rT3 deiodination by clone G21 enzyme expressed in transfected JEG-3 cells; format: biochemical; conditions: for mode of inhibition: rT3 as substrate
T5 construct: the full length protein terminates at the UAG codon at nucleotide 778; expressed in transfected cells; host or cells: JEG-3 human choriocarcinoma cells, vector CDM-8 (homogenates, microsomal fractions or sonicates)
T5 sequence (P24389 1-257): T2 sequence (P24389 1-257)
Text: To verify that this clone encoded the Type I 5' deiodinase, it was expressed in JEG-3 human choriocarcinoma cells following DNA transfection.
To confirm that this clone encoded Type I 5' deiodinase, it was expressed in JEG-3 human choriocarcinoma cells following DNA transfection.

human 5' deiodinase [4] = biological target: T4, human 5' deiodinase; conditions: with or without 0.5 mM PTU; 100 nM 125I-T4, 25 mM DTT, 16 hours
Procedure: T4, T3 and I^- were separated by paper chromatography and identified by staining of chromatographed unlabelled standards. The ^125 I content of the products was quantitated by counting the paper strips in a gamma scintillation counter. All assays were performed in duplicate. Kinetic analyses were performed as previously described (Berry, et al., J. Biol. Chem. 266:14155-14158 (1991)) by drawing double reciprocal plots of deiodination rate vs. substrate concentration. […] Since the enzyme is not pure, all kinetic constants are apparent.

[5] = biological target: T6, Liver Microsomal Human Type I 5'-Deiodinase (Homo sapiens, UniProt P49895); conditions: cited from earlier work
T6 construct: those of the human liver microsomal enzyme; from tissue; host or cells: human liver microsomes
T6 sequence (P49895 1-249): T1 sequence (P49895 1-249)

Type I deiodinase = biological target: T7, Type I deiodinase (Rattus norvegicus, UniProt P24389); conditions: cited from earlier work
T7 sequence (P24389 1-257): T2 sequence (P24389 1-257)

[6] = biological target: T8, rat 5' deiodinase cysteine mutant (Rattus norvegicus, UniProt P24389, U126C); conditions: cited from earlier work
T8 sequence (P24389 1-257 U126C): T2 sequence (P24389 1-257) with U126C

5' deiodinase activity = biological target: T9, 5' deiodinase activity (Rattus norvegicus, UniProt P24389); conditions: rats; cited from earlier work
T9 construct: host or cells: rat, in vivo
T9 sequence (P24389 1-257): T2 sequence (P24389 1-257)

[7] = biological target: T10, Type I iodothyronine 5' deiodinase, TGT (cysteine-126) mutant (Rattus norvegicus, UniProt P24389, U126C); test: Sensitivity to gold thioglucose, cysteine mutant (TGT) G21 cDNA, JEG cell sonicates; format: biochemical; conditions: for Deiodinase Activity of JEG cell sonicates: 10 mM DTT, 300 nM 125I rT3, 30 min
T10 construct: expressed in transfected cells; host or cells: JEG-3 cells, vector CDM-8 (cell sonicate)
T10 sequence (P24389 1-257 U126C): T2 sequence (P24389 1-257) with U126C
Text: as §1

[8] = PTU 100 μM, read-out: decrease in BrAcT3 labelling

Kb ([1]; apparent): 5000 µM
Compound: O[C@H](CS)[C@H](O)CS (racemic) [DTT, dithiothreitol]

effect on enzyme activity ([2]; 5 μm): no effect
Compound: OC[C@H]1O[C@@H](S)[C@H](O)[C@@H](O)[C@@H]1O [1β-D-Thioglucose]

BrAcT3 labelling of the ~28 kDa protein (rat 5' deiodinase; excess cold BrAcT3 (364 nM)): inhibited
BrAcT3 labelling of the ~28 kDa protein (human 5' deiodinase [3]; excess cold BrAcT3 (364 nM)): inhibited
Compound: O=C(CBr)NC(Cc1cc(I)c(Oc2ccc(O)c(I)c2)c(I)c1)C(=O)O (centres unmarked) [BrAcT3]

Compound: CCCc1cc(=O)[nH]c(=S)[nH]1 [PTU, propylthiouracil]
131I release from T4 (T4 to T3 conversion; 100 mg, euthyroid subjects): inhibition
T4 to T3 conversion (T4 to T3 conversion; hyperthyroid patients): dose-related inhibition
inhibition at 100 µM (rat 5' deiodinase; [8]): 35 to 40%
inhibition at 0.5 µM (Type I 5' deiodinase; 0.5 μM PTU): > 50%
mode of inhibition (Type I 5' deiodinase): competitive inhibitor of DTT
inhibition at 100 µM (human 5' deiodinase [3]; [8]): 35 to 40%
pKi ([1]; Ki (PTU · DTT), competitive with respect to DTT, apparent): 7.85
pKi ([1]; Ki (PTU · rT3), 10 mM DTT, uncompetitive inhibitor of rT3 deiodination, apparent): 6.77
T4 to T3 conversion, sensitivity to PTU (human 5' deiodinase [4]): PTU-sensitive
pKi ([5]; read-out: Ki (PTU · DTT)): 7.00
pKi ([5]; read-out: Ki (PTU · rT3), 5 mM DTT): 6.55

Compound: N[C@@H](Cc1cc(I)c(Oc2cc(I)c(O)c(I)c2)c(I)c1)C(=O)O [T4, thyroxine]
inhibition at 30 µM (rat 5' deiodinase; T4 30 μM, read-out: reduction of BrAcT3 labelling): 67%
mode of inhibition (Type I 5' deiodinase): competitive inhibitor of rT3 deiodination
BrAcT3 labelling of the ~28 kDa protein (human 5' deiodinase [3]; T4 30 μM): does not inhibit
pKi [1]: 5.21

Compound: N[C@@H](Cc1ccc(Oc2cc(I)c(O)c(I)c2)c(I)c1)C(=O)O [rT3, 3,3',5'-triiodothyronine]
BrAcT3 labelling of the ~28 kDa protein (rat 5' deiodinase; rT3 3 μM and 10 μM): inhibited
Vmax/Km ratio for rT3 higher than for T4 (Type I deiodinase): 1000 fold
apparent Km of the cysteine mutant higher than wild type [6]: 10 fold
BrAcT3 labelling of the ~28 kDa protein (human 5' deiodinase [3]; rT3 3 μM and 10 μM): inhibited
Vmax (rT3) ([1]; 10 mM DTT): 63.2 ± 16.4 pmol/min/mg and 63.2 pmol/min/mg
Vmax (rT3) ([5]; 5 mM DTT): 128 to 242 pmol/min/mg

Compound: gold
5' deiodinase activity after administration (5' deiodinase activity): Inhibition

Compound: gold thioglucose [GTG]
BrAcT3 labelling of the ~28 kDa protein (rat 5' deiodinase; 100 nM gold thioglucose): inhibited
sensitivity to inhibition compared with the native enzyme [7]: much less sensitive
Inhibition ([7]; GTG 10 nM): 0%
Deiodinase Activity of JEG cell sonicates ([7]; GTG 10 nM): 1.3 pmol rT3 min^-1 mg protein^-1
Inhibition ([7]; GTG 100 nM): 13%
Deiodinase Activity of JEG cell sonicates ([7]; GTG 100 nM): 1.1 pmol rT3 min^-1 mg protein^-1
BrAcT3 labelling of the ~28 kDa protein (human 5' deiodinase [3]; 100 nM gold thioglucose): inhibited
pKi ([1]; read-out: Ki (GTG · rT3), 10 mM DTT, competitive, apparent): 8.33
Inhibition ([2]; GTG 1 nM): 0%
Deiodinase Activity of JEG cell sonicates ([2]; GTG 1 nM): 7.0 pmol rT3 min^-1 mg protein^-1
Inhibition ([2]; GTG 10 nM): 43%
Deiodinase Activity of JEG cell sonicates ([2]; GTG 10 nM): 4.0 pmol rT3 min^-1 mg protein^-1
Inhibition ([2]; GTG 10 nM, listed as gold thioglucose): ~ 50%
Inhibition ([2]; GTG 100 nM): 95%
Deiodinase Activity of JEG cell sonicates ([2]; GTG 100 nM): 0.95 pmol rT3 min^-1 mg protein^-1
